Experimental data published in patent publication US20240190851A1, “FURAN FUSED RING-SUBSTITUTED GLUTARIMIDE COMPOUND” (MEDSHINE DISCOVERY INC., priority 2021, published 2024).
Structures can show the parent of a compound that is named as a salt.

Target: T1, androgen receptor AR (Homo sapiens, UniProt P10275, T878A)
T1 construct: degradation effect of compounds on androgen receptor AR in LNCaP cells; endogenous in cells; host or cells: LNCaP
T1 sequence (P10275 1-920 T878A): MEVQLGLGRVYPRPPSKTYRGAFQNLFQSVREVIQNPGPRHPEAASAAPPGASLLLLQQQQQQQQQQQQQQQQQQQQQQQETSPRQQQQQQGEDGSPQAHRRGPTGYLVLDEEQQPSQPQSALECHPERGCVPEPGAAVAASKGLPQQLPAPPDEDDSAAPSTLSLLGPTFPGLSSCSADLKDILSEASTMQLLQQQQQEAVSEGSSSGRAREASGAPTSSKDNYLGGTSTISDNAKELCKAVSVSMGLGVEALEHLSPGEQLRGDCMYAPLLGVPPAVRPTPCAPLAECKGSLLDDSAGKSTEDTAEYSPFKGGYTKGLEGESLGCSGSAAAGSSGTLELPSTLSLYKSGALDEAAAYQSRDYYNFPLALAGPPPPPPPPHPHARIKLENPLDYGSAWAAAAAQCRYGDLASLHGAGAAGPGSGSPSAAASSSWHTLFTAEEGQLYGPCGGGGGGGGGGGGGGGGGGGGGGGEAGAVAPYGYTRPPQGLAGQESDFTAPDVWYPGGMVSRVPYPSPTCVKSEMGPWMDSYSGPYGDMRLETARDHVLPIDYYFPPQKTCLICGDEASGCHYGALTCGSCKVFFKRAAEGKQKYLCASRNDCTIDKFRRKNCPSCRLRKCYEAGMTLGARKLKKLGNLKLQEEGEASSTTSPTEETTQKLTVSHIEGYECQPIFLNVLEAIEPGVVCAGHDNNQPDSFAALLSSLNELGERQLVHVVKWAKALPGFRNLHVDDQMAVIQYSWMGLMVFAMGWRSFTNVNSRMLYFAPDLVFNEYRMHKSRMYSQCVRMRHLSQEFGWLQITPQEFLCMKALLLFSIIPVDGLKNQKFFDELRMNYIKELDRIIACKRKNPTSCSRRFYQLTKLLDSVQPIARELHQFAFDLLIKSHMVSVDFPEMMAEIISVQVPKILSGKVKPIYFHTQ
Assay: AR degradation in LNCaP cells by ICW method
Type: cell-based
Conditions: 24 hours
Procedure: Experimental purpose: To test the degradation effect of compounds on androgen receptor AR in LNCaP cells by ICW method.
Day 1 • 1. The cell culture medium, 0.025% trypsin, and phosphate buffered saline were preheated in a 37° C. water bath. • 2. Cells digested by trypsin were centrifuged at 1000 rpm for 5 minutes. The supernatant was discarded, and then the cells were resuspended in fresh culture medium. • 3. The cells were inoculated in a COL-Coated CellCarrier-384 plate at a density of 4 k/[…]/well. • 4. The 384 cell plate inoculated with cells was placed in an ultra-clean bench for 10 minutes. • 5. The cell plate was cultured overnight in a CO2 cell incubator.
Day 2 • 1. The compound at a concentration of 10 mM was diluted to 3 mM (3 μL+7 μL of dimethyl sulfoxide) before serial dilution. • 2. The compound was serially diluted 3-fold (4 μL+8 μL) in an Echo plate using Bravo. • 3. ZPE and HPE control wells were setup, and the ZPE control wells were dimethyl sulfoxide. • 4. The Echo plate was centrifuged at 1000 rpm for 1 minute, and then the diluted compound was transferred from the Echo plate to an intermediate plate using Echo with 200 nL/well. • 5. To the intermediate plate was added the cell culture medium using Multidrop combi with […]. • 6. The intermediate plate was shaken on a horizontal shaker for 1 minute to mix the compound well with the culture medium. • 7. The compound was transferred from the intermediate dilution plate to the cell plate using Bravo with 4 μL/well. • 8. The cell plate was shaken on the horizontal shaker for 1 minute, and centrifuged at 800 rpm for 30 seconds. • 9. The cell plate was returned to the CO2 incubator, and cultured for another 24 hours.
Day 3 • 1. 4% paraformaldehyde was removed from the refrigerator and brought to room temperature. • 2. The cell plate was removed from the incubator. • 3. To the cell plate was directly added 4% paraformaldehyde with 40 μL/well. • 4. The plate was incubated at room temperature for 20 minutes. • 5. The culture medium was manually shaken off from the cell plate, inverted in a centrifuge, and centrifuged at 800 rpm for 7 seconds to fully remove the residual culture medium. • 6. To the cell plate was added 4% paraformaldehyde with 25 μL/well. • 7. The plate was incubated at room temperature for 30 minutes. • 8. The paraformaldehyde solution was manually shaken off from the cell plate, inverted in the centrifuge, and centrifuged at 800 rpm for 7 seconds. • 9. 0.1% Trition was added with 25 μL/well. • 10. The plate was incubated at room temperature for 10 minutes. • 11. The 0.1% Trition solution was manually shaken off from the cell plate, inverted in the centrifuge, and centrifuged at 800 rpm for 7 seconds. • 12. Intercept® (PBS) blocking buffer was added with 25 μL/well. • 13. The plate was incubated at room temperature for 1 hour. • 14. The Intercept® (PBS) blocking buffer solution was manually shaken off from the cell plate, inverted in the centrifuge, and centrifuged at 800 rpm for 7 seconds. • 15. Primary antibody solution was added with 20 μL/well. The cell plate was placed in the centrifuge, and centrifuged at 800 rpm for 7 seconds. • 16. The cell plate was sealed, and then incubated overnight at 4° C.
Day 4 • 1. The primary antibody solution was manually shaken off from the cell plate, inverted in the centrifuge, and centrifuged at 800 rpm for 7 seconds. • 2. The plate was washed three times with 110 μL of PBS. • 3. The cell plate was inverted in the centrifuge, and centrifuged at 800 rpm for 7 seconds. • 4. Secondary antibody and DAPI solution was added with 20 μL/well. The cell plate was placed in the centrifuge, and centrifuged at 800 rpm for 7 seconds. • 5. The plate was incubated at room temperature for 1 hour. • 6. The secondary antibody and DAPI solution was manually shaken off from the cell plate, inverted in the centrifuge, and centrifuged at 800 rpm for 7 seconds. • 7. […]

Row | Structure (SMILES) | DC50 [nM] | Dmax [%]
1 | N#Cc1ccc(O[C@H]2CC[C@H](NC(=O)c3ccc(N4CCC(CN5CCN(c6cccc7c6ccc6occ(C8CCC(=O)NC8=O)c67)CC5)CC4)nn3)CC2)cc1Cl (stereo partly shown) [Hydrochloride of WX015] | 13.7 | 102
2 | CC1(C)C(=O)N(c2ccc(C#N)c(C(F)(F)F)c2)C(=S)N1c1ccc(OCCN2CCN(CC(=O)Nc3ccc4c(C5CCC(=O)NC5=O)coc4c3)CC2)c(F)c1 (stereo not shown) [WX002] | 8.9 | 72
